Data from patent US8920854B2, “Oral care compositions for treating xerostomia” (Georgia Regents Research Institute, priority 2009, dated 2014).

Key:
Assay type in all cases: in vivo, mouse
NOD/Lt mice = assay: Submandibular gland lymphocytic infiltration in EGCG/water-fed NOD/Lt mice; conditions: 0.2% EGCG in drinking water
Protocol: Animals were fed either with EGCG/water or water only. At the age of 8 (n=36), 16 (n=36) and 22 weeks (n=27), submandibular glands were dissected, processed and stained by H&E. Three randomly selected areas of lymphocytic infiltrates were measured in each gland as relative density units generated by BIOQUANT NOVA PRIME 6.75 software, representing area sizes. Error bars are standard error of means (SEM). […] An animal study was conducted to examine whether EGCG fed prior to development of exocrinopathy is protective against salivary gland lymphocyte infiltration and gland abnormalities. Since EGCG is the most abundant green tea polyphenol, and widely used in scientific studies, this compound was selected for this feasibility study using 0.2% EGCG in drinking water (Gillespie K, et al. 2008).

[1] = tested on: superoxide dismutase 1 (SOD1); assay: Antioxidant capacity by immunohistochemistry in NOD mice: SOD1; conditions: EGCG-fed NOD mice, 22 weeks, n=12, P<0.0001
Protocol: Salivary gland and pancreas samples were obtained at 22 weeks of age from NOD mice fed water or EGCG-water (12 animals per group), and from control BALB/c mice. The antioxidant capacity represented by protein levels of peroxiredoxin 6, superoxide dismutase 1 (SOD1), catalase, and glutathione peroxidase was measured by immunohistochemstry.

catalase = assay: Antioxidant capacity by immunohistochemistry in NOD mice: catalase; conditions: submandibular salivary glands, EGCG-fed NOD/Lt mice, 22 weeks; n=12, p<0.04
Excerpt: (§1) FIGS. 8A-8C, 8D-8F show representative immunostaining of peroxiredoxin 6 (FIGS. 8A-C) and catalase (FIGS. 8D-F) expression in glandular epithelium of 22 week old water-fed (FIGS. 8A, 8D) and EGCG-treated NOD mice (FIGS. 8B, 8E) (magnification 200×). FIGS. 8C and 8F show statistical analysis of peroxiredoxin 6 and Catalase-positive cells. Black arrows point to ductal cells; open arrow to acinar cells (FIG. 8B). Salivary gland and pancreas samples were obtained at 22 weeks of age from NOD mice fed water or EGCG-water (12 animals per group), and from control BALB/c mice. The antioxidant capacity represented by protein levels of peroxiredoxin 6, superoxide dismutase 1 (SOD1), catalase, and glutathione peroxidase was measured by immunohistochemstry.

[2] = tested on: TUNEL-positive cells in submandibular gland; assay: Apoptotic activity in salivary glands by TUNEL staining, NOD/Lt mice; conditions: 0.2% EGCG in drinking water, 8, 16, 22 weeks
Excerpt: Submandibular salivary gland samples from BALB/c (left), water-fed (middle), and EGCG-fed (right) NOD/Lt mice were stained with ApopTag Plus Peroxidase in situ apoptosis detection method according to the manufacturer's instructions. Arrows point to the nuclear staining of TUNEL-positive cells. […] Submandibular salivary gland samples from BALB/c (left), water-fed (middle), and EGCG-fed (right) NOD/Lt mice were immunostained with the anti-PCNA antibody. Arrows point to the nuclear staining of PCNA-positive cells. […] Submandibular salivary gland samples from BALB/c (left), water-fed (middle), and EGCG-fed (right) NOD/Lt mice were immunostained with the anti-Ki-67 antibody. Arrows point to the nuclear staining of Ki-67-positive cells. […] Solid bars represent the average percentage of TUNEL-positive cells in the submandibular gland of water-fed NOD/Lt mice. Open bars represent the average of TUNEL-positive cells in the submandibular gland of EGCG-fed NOD/Lt mice. […] Solid bars represent the average percentage of PCNA-positive cells in the submandibular gland of water-fed NOD/Lt mice. […] The apoptotic activity was determined by TUNEL staining of the salivary glands (FIG. 5A) and quantification (FIG. 6A). […] Although it was not determined which cells were undergoing apoptosis, there was no significant apoptotic activity in the majority of secretory cells (Gillespie K, et al. 2008).

peroxiredoxin 6 = assay: Antioxidant capacity by immunohistochemistry in NOD mice: peroxiredoxin 6; conditions: 22 weeks
Excerpt: as §1

PCNA = PCNA immunostaining of submandibular glands, NOD/Lt mice; conditions: 0.2% EGCG in drinking water, between 16 and 22 weeks of age
Excerpt: (§2) Submandibular salivary gland samples from BALB/c (left), water-fed (middle), and EGCG-fed (right) NOD/Lt mice were stained with ApopTag Plus Peroxidase in situ apoptosis detection method according to the manufacturer's instructions. Arrows point to the nuclear staining of TUNEL-positive cells. […] Submandibular salivary gland samples from BALB/c (left), water-fed (middle), and EGCG-fed (right) NOD/Lt mice were immunostained with the anti-PCNA antibody. Arrows point to the nuclear staining of PCNA-positive cells. […] Submandibular salivary gland samples from BALB/c (left), water-fed (middle), and EGCG-fed (right) NOD/Lt mice were immunostained with the anti-Ki-67 antibody. Arrows point to the nuclear staining of Ki-67-positive cells. […] Solid bars represent the average percentage of TUNEL-positive cells in the submandibular gland of water-fed NOD/Lt mice. Open bars represent the average of TUNEL-positive cells in the submandibular gland of EGCG-fed NOD/Lt mice. […] Solid bars represent the average percentage of PCNA-positive cells in the submandibular gland of water-fed NOD/Lt mice. Open bars represent the average of PCNA-positive cells in the submandibular gland of EGCG-fed NOD/Lt mice. […] Solid bars represent the average of Ki-67-positive cells in the submandibular gland of water-fed NOD/Lt mice. Open bars represent the average of Ki-67-positive cells in the submandibular gland of […] […]

Ki-67 = Ki-67 immunostaining of submandibular glands, NOD/Lt mice; conditions: 0.2% EGCG in drinking water, 8, 16, 22 weeks
Excerpt: as §2

O=C(O[C@@H]1Cc2c(O)cc(O)cc2O[C@@H]1c1cc(O)c(O)c(O)c1)c1cc(O)c(O)c(O)c1 [EGCG, epigallocatechin-3-gallate]
average area of lymphocytic infiltration vs water-fed group (NOD/Lt mice; 16 weeks of age, p=0.026): significantly lower
average area of lymphocytic infiltration vs water-fed group (NOD/Lt mice; 22 weeks of age): no significant difference
SOD1 level in the pancreas [1]: normalized to BALB/c levels
expression of catalase vs water only fed mice (catalase): significantly higher
apoptosis in the glandular epithelium (TUNEL) [2]: did not affect
apoptosis in the infiltrates (TUNEL) [2]: initially raising levels, but blocking the considerable increase seen at 22 weeks in water-fed mice
peroxiredoxin 6 level in the pancreas (peroxiredoxin 6; pancreas, EGCG-fed NOD mice, n=12, P<0.0001): normalized to BALB/c levels
expression of peroxiredoxin 6 vs water only fed mice (peroxiredoxin 6; submandibular salivary glands, EGCG-fed NOD/Lt mice, n=12, p<0.04): significantly higher
PCNA-positive cells in submandibular glands (PCNA): considerably reduces the rise of PCNA
Ki-67 levels in submandibular glands (Ki-67): affected by EGCG in the same pattern
